Results taken from PubChem BioAssay (NCI).
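Grown in 96-well plates, cells were treated for 48 hours with each compound at five concentrations. Insufficient inhibition: endpoint recorded as highest concentration tested. At the TGI there is no net growth.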

Legend:
Test in all cases: growth of human tumour cells (NCI), 48 h
786-0 renal = tested on: 786-0 renal
A498 renal = tested on: A498 renal
A549 NSCLC = tested on: A549 NSCLC
ACHN renal = tested on: ACHN renal
CAKI-1 renal = tested on: CAKI-1 renal
CCRF-CEM leukemia = tested on: CCRF-CEM leukemia
COLO 205 colon = tested on: COLO 205 colon
DU-145 prostate = tested on: DU-145 prostate
EKVX NSCLC = tested on: EKVX NSCLC
HCC-2998 colon = tested on: HCC-2998 colon
HCT-116 colon = tested on: HCT-116 colon
HCT-15 colon = tested on: HCT-15 colon
HOP-62 NSCLC = tested on: HOP-62 NSCLC
HOP-92 NSCLC = tested on: HOP-92 NSCLC
HT29 colon = tested on: HT29 colon
IGROV1 ovarian = tested on: IGROV1 ovarian
K-562 leukemia = tested on: K-562 leukemia
KM12 colon = tested on: KM12 colon
LOX IMVI melanoma = tested on: LOX IMVI melanoma
M14 melanoma = tested on: M14 melanoma
MALME-3M melanoma = tested on: MALME-3M melanoma
MCF7 breast = tested on: MCF7 breast
MDA-MB-231 breast = tested on: MDA-MB-231 breast
MDA-MB-435 = tested on: MDA-MB-435
MDA-N = tested on: MDA-N
MOLT-4 leukemia = tested on: MOLT-4 leukemia
NCI-H226 lung = tested on: NCI-H226 lung
NCI-H23 lung = tested on: NCI-H23 lung
NCI-H460 lung = tested on: NCI-H460 lung
NCI-H522 lung = tested on: NCI-H522 lung
NCI/ADR-RES ovarian = tested on: NCI/ADR-RES ovarian
OVCAR-3 ovarian = tested on: OVCAR-3 ovarian
OVCAR-4 ovarian = tested on: OVCAR-4 ovarian
OVCAR-5 ovarian = tested on: OVCAR-5 ovarian
OVCAR-8 ovarian = tested on: OVCAR-8 ovarian
PC-3 prostate = tested on: PC-3 prostate
RXF 393 renal = tested on: RXF 393 renal
SF-268 CNS = tested on: SF-268 CNS
SF-295 CNS = tested on: SF-295 CNS
SF-539 CNS = tested on: SF-539 CNS
SK-MEL-2 melanoma = tested on: SK-MEL-2 melanoma
SK-MEL-28 melanoma = tested on: SK-MEL-28 melanoma
SK-MEL-5 melanoma = tested on: SK-MEL-5 melanoma
SK-OV-3 ovarian = tested on: SK-OV-3 ovarian
SN12C renal = tested on: SN12C renal
SNB-19 CNS = tested on: SNB-19 CNS
SNB-75 CNS = tested on: SNB-75 CNS
SR leukemia = tested on: SR leukemia
SW-620 colon = tested on: SW-620 colon
T-47D breast = tested on: T-47D breast
TK-10 renal = tested on: TK-10 renal
U251 CNS = tested on: U251 CNS
UACC-257 melanoma = tested on: UACC-257 melanoma
UACC-62 melanoma = tested on: UACC-62 melanoma
UO-31 renal = tested on: UO-31 renal

Measured: TGI

C=C(C)/C=C/C(O)[C@](C)(O)[C@H]1[C@H](O)C[C@@]2(C)[C@@H]3CCc4c(cc(OC5OC(CO)C(O)C(O)C5O)c(O)c4C)C3(C)C(=O)C[C@]12C (stereo not given in full)
> 100 µM: 786-0 renal | A498 renal | A549 NSCLC | ACHN renal | CAKI-1 renal | CCRF-CEM leukemia | COLO 205 colon | DU-145 prostate | EKVX NSCLC | HCC-2998 colon | HCT-116 colon | HCT-15 colon | HOP-62 NSCLC | HOP-92 NSCLC | HT29 colon | IGROV1 ovarian | K-562 leukemia | KM12 colon | LOX IMVI melanoma | M14 melanoma | MALME-3M melanoma | MCF7 breast | MDA-MB-231 breast | MDA-MB-435 | MDA-N | MOLT-4 leukemia | NCI-H226 lung | NCI-H23 lung | NCI-H460 lung | NCI-H522 lung | NCI/ADR-RES ovarian | OVCAR-3 ovarian | OVCAR-4 ovarian | OVCAR-5 ovarian | OVCAR-8 ovarian | PC-3 prostate | RXF 393 renal | SF-268 CNS | SF-295 CNS | SF-539 CNS | SK-MEL-2 melanoma | SK-MEL-28 melanoma | SK-MEL-5 melanoma | SK-OV-3 ovarian | SN12C renal | SNB-19 CNS | SNB-75 CNS | SR leukemia | SW-620 colon | T-47D breast | TK-10 renal | U251 CNS | UACC-257 melanoma | UACC-62 melanoma | UO-31 renal
